In US4323547A, “Labeled fatty acids and method of making and using same” (priority 1978, dated 1982):

Tests used:
heart muscle = experiment: Heart muscle uptake and elimination of radiolabelled fatty acids after tail vein injection in mice; assay type: in vivo, NMRI mice
Protocol: (§1) Animal experiments with mice were carried out using the product resulting from the high pressure liquid chromatographic purification after evaporation of the eluate to dryness in a rotary evaporator and the dissolution of the product in human serum albumin. The solution is filtered and injected in aliquot portions to the tail vein of each animal.
(§2) The following table assembles the results of comparative tests with the compounds of the invention and prior art compounds: […]

[1] = as above; assay type: in vivo, NMRI mice; settings: mouse, in vivo, iv; for tissue uptake at 2 min: NMRI mice, tail vein injection in human serum albumin, read-out: maximum 18F activity in the heart muscle
Protocol: as §1, §2

[2] = comparative tests, table 2, heart
[3] = NMRI mice, tail vein injection in human serum albumin

Row | Compound | Elimination Half-time, rapid elimination (heart muscle; mouse, in vivo, iv) | Max. Enrichment in % of Injected Dose per Heart (heart muscle; mouse, in vivo) | Elimination Half-time, slow elimination (heart muscle; mouse, in vivo, iv) | Time to Max. Enrichment (heart muscle; mouse, in vivo, iv) | Max. Enrichment in % of Injected Dose per Heart (heart muscle; comparative tests, table 2) | Elimination Half-time, slow elimination (heart muscle; [2]) | Time to Max. Enrichment (heart muscle; [2]) | Elimination Half-time, rapid elimination (heart muscle; [2]) | tissue uptake at 2 min [1] | dropoff of heart activity, long-duration component (heart muscle; [3]) | dropoff of heart activity, short-duration component (heart muscle; [3]) | time within which the activity reaches a maximum in heart muscle (heart muscle; [3]) | tissue uptake ([1]; general description, read-out: maximum pickup in heart muscle) | maximum 18F activity in the heart muscle (heart muscle; NMRI mice, tail vein injection in human serum albumin, 2 min)
1 | CCCCCCCCCCCCCCCCC([18F])C(=O)O (stereo not shown) [2-^18 F-Stearic acid] | – | – | – | – | 1.34 ± 0.1 % of Injected Dose per Heart | 5 ± 1.5 min | 1 min | 0.5 ± 0.1 min | – | – | – | – | – | –
2 | CCCCCCCCCCCCCCCCC([34Cl])C(=O)O (stereo not shown) [2-^34m Cl-Stearic acid] | 0.9 ± 0.2 min | 2.03 ± 0.1 % of Injected Dose per Heart | 9 ± 1.8 min | 1 min | – | – | – | – | – | – | – | – | – | –
3 | CCCCCCCCCCCCCCCCC([123I])C(=O)O (stereo not shown) [2-^123 I-Stearic acid] | 2 ± 0.4 min | 1.411 ± 0.1 % of Injected Dose per Heart | 13 ± 2.7 min | 0.5 to 1 min | – | – | – | – | – | – | – | – | – | –
4 | O=C(O)CCCCCCCCCCCCCCC[18F] [16-^18 F-Palmitic acid, 16-^18 F hexadecanoic acid] | – | – | – | – | 4.35 ± 1.3 % of Injected Dose per Heart | 44 ± 11 min | 0.25 min | 3 ± 0.8 min | ~40 %ID/g | eighteen to fifty-one | two to six | two | – | –
5 | O=C(O)CCCCCCCCCCCCCCCC[18F] [17-^18 F-Heptadecanoic acid] | – | – | – | – | 4.812 ± 0.8 % of Injected Dose per Heart | 18 ± 6 min | 0.5 min | 6 ± 1.5 min | ~40 %ID/g | eighteen to fifty-one | two to six | two | ~40 %ID/g | –
6 | O=C(O)CCCCCCCCCCCCCCCC[34Cl] [17-^34m Cl-Heptadecanoic acid] | – | – | – | – | 2.16 ± 0.6 % of Injected Dose per Heart | 23 ± 4.7 min | 0.25 min | 0.9 ± 0.2 min | – | – | – | – | – | –
7 | (9/10)-^18 F-stearic acid [9/10-^18 F-Stearic acid] | – | – | – | – | 4.25 ± 0.9 % of Injected Dose per Heart | 24 ± 7 min | 0.5 min | 4 ± 1 min | – | eighteen to fifty-one | two to six | two | – | about 40 % gram (heart)

Further lines, with some results ahead:

Row | Elimination Half-time, rapid elimination (heart muscle; mouse, in vivo, iv) | Max. Enrichment in % of Injected Dose per Heart (heart muscle; mouse, in vivo) | Elimination Half-time, slow elimination (heart muscle; mouse, in vivo, iv) | Time to Max. Enrichment (heart muscle; mouse, in vivo, iv) | Compound | Max. Enrichment in % of Injected Dose per Heart (heart muscle; comparative tests, table 2) | Elimination Half-time, slow elimination (heart muscle; [2]) | Time to Max. Enrichment (heart muscle; [2]) | Elimination Half-time, rapid elimination (heart muscle; [2]) | tissue uptake at 2 min [1] | dropoff of heart activity, long-duration component (heart muscle; [3]) | dropoff of heart activity, short-duration component (heart muscle; [3]) | time within which the activity reaches a maximum in heart muscle (heart muscle; [3]) | tissue uptake ([1]; general description, read-out: maximum pickup in heart muscle) | maximum 18F activity in the heart muscle (heart muscle; NMRI mice, tail vein injection in human serum albumin, 2 min)
8 | 0.4 ± 0.1 min | – | – | – | CCCCCCCCCCCCCCC[11C](=O)O [1-[^11 C] Palmitic acid] | 3.87 ± 1.0 % of Injected Dose per Heart | 33 ± 6.5 min | 0.25 min | – | – | – | – | – | – | –
9 | 1 ± 0.2 min | 1.47 ± 0.3 % of Injected Dose per Heart | 18 ± 3.6 min | 1 min | CCCCCCCCCCCCCCCCC([77Br])C(=O)O (stereo not shown) [2-^77 Br-Stearic acid] | – | – | – | – | – | – | – | – | – | –
10 | 2.4 ± 0.5 min | 3.36 ± 0.4 % of Injected Dose per Heart | 33 ± 6.6 min | 0.5 min | O=C(O)CCCCCCCCCCCCCCC[123I] [16-^123 I-Palmitic acid] | – | – | – | – | – | – | – | – | – | –
11 | 0.6 ± 0.1 min | 2.210 ± 0.6 % of Injected Dose per Heart | 36 ± 7.2 min | 0.5 min | O=C(O)CCCCCCCCCCCCCCCC[77Br] [17-^77 Br-Heptadecanoic acid] | – | – | – | – | – | – | – | – | – | –
12 | 2.1 ± 0.4 min | 3.97 ± 0.4 % of Injected Dose per Heart | 25 ± 5.0 min | 0.25 min | O=C(O)CCCCCCCCCCCCCCCC[123I] [17-^123 I-Heptadecanoic acid] | – | – | – | – | – | – | – | – | – | –
